According to patent publication US20250263436A1, “BROAD-SPECTRUM ANTIVIRAL DRUG FOR ENTEROVIRUS, AND APPLICATION” (WUHAN INSTITUTE OF VIROLOGY, CHINESE ACADEMY OF SCIENCES, priority 2020, published 2025):
Several values for one entry are separate records, joined by “and”; a condition that tells them apart may be missing. Equal values may be shown once.

How the values were obtained:
[1] = Cytotoxicity of polypeptides in Vero cells (CCK-8); assay type: cell-based; conditions: Vero cells, 24 h
Experimental: (§1) Therefore, this standard was testified by cytotoxicity assay, and the cells without any treatment were used as a control group.
(§2) (1) Vero cells were plated in a 96-well plate at 100 μL per well.
(§3) (2) When the cells grew to a confluence of 70%-80%, the DMEM medium containing 10% serum was replaced with a DMEM medium containing 2% serum, and a certain concentration gradient of polypeptide RQ or LQ or SQ was added, so that the final concentrations of the polypeptide in the wells were 0.073242 μM, 0.146484 μM, 0.292969 μM, 0.585938 μM, 1.171875 μM, 2.34375 μM, 4.6875 μM, 9.375 μM, 18.75 μM, 37.5 μM, 75 μM and 150 μM, respectively.
(§4) (3) The samples were collected 24 h after the addition of the polypeptide, and then 10 μL of live cell detection reagent CCK-8 was added to each well and mixed well.
(§5) (4) The plate was placed at 37° C. for 2 h.
(§6) (5) The absorbance value at OD450 was detected by a microplate reader.
(§7) The CC50 of each polypeptide was calculated taking the cell viability of untreated cells as 100%.

Vero cells = assay: Cytotoxicity of polypeptides in Vero cells (CCK-8); assay type: cell-based; conditions: Vero cells, 24 h
Experimental: as §1, §2, §3, §4, §5, §6, §7

EV71 = assay: Inhibition of EV71 in RD cells (viral RNA, qRT-PCR); assay type: cell-based, enterovirus 71 (EV71); conditions: anti-EV71 in RD cells
Experimental: (1) Different cells were plated in a 24-well plate.
(2) When the cells grew to a confluence of 70%-80%, the DMEM medium containing 10% serum was replaced with a DMEM medium containing 2% serum (the DMEM medium containing 2% serum was added in each well at an amount of 0.5 mL), and 5 μL of EV71 virus of 1×10^6 PFU/mL was added to each well.
(3) After 1 h, different polypeptides (RQ or control TAT) with final concentrations of 0.3125 μM, 0.625 μM, 1.25 μM, 2.5 μM, and 5 μM were added respectively. The group without polypeptide added was used as a control.
(4) The samples were collected 24 h after the infection of EV71 virus, and RNA was extracted with the total RNA extraction kit.
(5) The supernatant was discarded, then 350 μL of TRK lysate was added to each well, and the plate was put on a shaker for 5 min.
(6) 350 μL of 70% ethanol (DEPC) was added to each well, and then the plate was put on a shaker for 5 min.
(7) The solution in each well was transferred to a RNA extraction column for 1 min of centrifugation at 12000 g.
(8) The solution obtained in the recovery tube was reloaded on the column again for 1 min of centrifugation at 12000 g.
(9) RNA washing buffer 1 was added in the column for 30 s of centrifugation at 12000 g.
(10) RNA washing buffer 2 was added in the column for 1 min of centrifugation at 12000 g.
(11) Step (10) was repeated.
(12) The column alone was centrifuged at 12000 g for 2 min to completely remove the residual RNA washing buffer.
(13) 50 μL of DEPC water was added to the column for 2 min of centrifugation at 12000 g.
(14) 2 μL of RNA sample was subjected to a fluorescence quantitative experiment using the one step qRT-PCR kit.
(3) After 1 h, different polypeptides (RQ or control TAT) with final concentrations of 0.3125 μM, 0.625 μM, 1.25 μM, 2.5 μM and 5 μM were added respectively. The group without polypeptide added was used as a control.

[2] = Toxicity assay in Huh7 cells (CCK-8); assay type: cell-based; conditions: human, Huh7 cells
Experimental: (§8) (1) Different cells were plated in a 96-well plate at 100 μL per well.
(§9) (2) When the cells grew to a confluence of 70%-80%, the DMEM medium containing 10% serum was replaced with a DMEM medium containing 2% serum, and a certain concentration gradient of polypeptide RQ was added, so that the final concentrations of the polypeptide in the wells were 0.073242 μM, 0.146484 μM, 0.292969 μM, 0.585938 μM, 1.171875 μM, 2.34375 μM, 4.6875 μM, 9.375 μM, 18.75 μM, 37.5 μM, 75 μM, 150 μM, and 300 μM, respectively.
as §4, §5, §6

Huh7 cells = assay: Toxicity assay in Huh7 cells (CCK-8); assay type: cell-based; conditions: Table 14, 24 h
Experimental: as §8, §9, §4, §5, §6

Structure (SMILES): CC[C@H](C)[C@H](NC(=O)[C@H](C)NC(=O)[C@H](CO)NC(=O)[C@H](CCCNC(=N)N)NC(=O)[C@H](CC(N)=O)NC(=O)[C@H](CC(N)=O)NC(=O)[C@H](Cc1ccc(O)cc1)NC(=O)[C@H](CCC(=O)O)NC(=O)[C@H](CCCNC(=N)N)NC(=O)CNC(=O)[C@H](CO)NC(=O)CNC(=O)[C@H](CCCNC(=N)N)NC(=O)[C@H](CCCNC(=N)N)NC(=O)[C@H](CCCNC(=N)N)NC(=O)[C@H](CCC(N)=O)NC(=O)[C@H](CCCNC(=N)N)NC(=O)[C@H](CCCNC(=N)N)NC(=O)[C@H](CCCCN)NC(=O)[C@H](CCCCN)NC(=O)[C@H](CCCNC(=N)N)NC(=O)CNC(=O)[C@@H](N)Cc1ccc(O)cc1)C(=O)NCC(=O)N[C@@H](CC(N)=O)C(=O)N[C@H](C(=O)N[C@H](C(=O)N[C@@H](CCC(=O)O)C(=O)N[C@@H](C)C(=O)N[C@@H](CC(C)C)C(=O)N[C@@H](Cc1ccccc1)C(=O)N[C@@H](CCC(N)=O)C(=O)O)[C@@H](C)CC)[C@@H](C)O [RQ]
- CC50 at 24 h ([1]; African green monkey, CCK-8): > 150 µM
- viability at 24 h, 0.073242 µM ([1]; polypeptide 0.073242 μM, read-out: Cell viability (%)): 101%
- viability at 24 h, 0.146484 µM ([1]; polypeptide 0.146484 μM, read-out: Cell viability (%)): 93.8%
- viability at 24 h, 0.292969 µM ([1]; polypeptide 0.292969 μM, read-out: Cell viability (%)): 92.7%
- viability at 24 h, 0.585938 µM ([1]; polypeptide 0.585938 μM, read-out: Cell viability (%)): 92.2%
- viability at 24 h, 1.17188 µM ([1]; polypeptide 1.171875 μM, read-out: Cell viability (%)): 116%
- viability at 24 h, 2.34375 µM ([1]; polypeptide 2.34375 μM, read-out: Cell viability (%)): 116%
- viability at 24 h, 4.6875 µM ([1]; polypeptide 4.6875 μM, read-out: Cell viability (%)): 113%
- viability at 24 h, 9.375 µM ([1]; polypeptide 9.375 μM, read-out: Cell viability (%)): 118%
- viability at 24 h, 18.75 µM ([1]; polypeptide 18.75 μM, read-out: Cell viability (%)): 111%
- viability at 24 h, 37.5 µM ([1]; polypeptide 37.5 μM, read-out: Cell viability (%)): 106%
- viability at 24 h, 75 µM ([1]; polypeptide 75 μM, read-out: Cell viability (%)): 110%
- viability at 24 h, 150 µM ([1]; polypeptide 150 μM, read-out: Cell viability (%)): 108%
- Cell viability (%) (Vero cells; polypeptide 0.073242 μM): 110.2362% and 105.9618%
- Cell viability (%) (Vero cells; polypeptide 0.146484 μM): 99.1% and 98.99%
- Cell viability (%) (Vero cells; polypeptide 0.292969 μM): 106.7492%
- Cell viability (%) (Vero cells; polypeptide 0.585938 μM): 91.56% and 90.78%
- Cell viability (%) (Vero cells; polypeptide 1.171875 μM): 115.2981% and 115.5231%
- Cell viability (%) (Vero cells; polypeptide 2.34375 μM): 111.0236% and 119.1226%
- Cell viability (%) (Vero cells; polypeptide 4.6875 μM): 109.7863% and 118.7852%
- Cell viability (%) (Vero cells; polypeptide 9.375 μM): 109.3363% and 99.1%
- Cell viability (%) (Vero cells; polypeptide 18.75 μM): 115.4106% and 105.7368%
- Cell viability (%) (Vero cells; polypeptide 37.5 μM): 108.5489%
- Cell viability (%) (Vero cells; polypeptide 75 μM): 127.5591% and 120.5849%
- Cell viability (%) (Vero cells; polypeptide 150 μM): 103.5996% and 100.1125%
- IC50 (EV71): 1.35 µM
- viability at 24 h, 0.073242 µM ([2]; Table 14, RQ 0.073242 μM, 24 h, read-out: Viability of Huh7 cell (%)): 113%
- viability at 24 h, 0.146484 µM ([2]; Table 14, RQ 0.146484 μM, 24 h, read-out: Viability of Huh7 cell (%)): 111%
- viability at 24 h, 0.292969 µM ([2]; Table 14, RQ 0.292969 μM, 24 h, read-out: Viability of Huh7 cell (%)): 111%
- viability at 24 h, 0.585938 µM ([2]; Table 14, RQ 0.585938 μM, 24 h, read-out: Viability of Huh7 cell (%)): 101%
- viability at 24 h, 1.17188 µM ([2]; Table 14, RQ 1.171875 μM, 24 h, read-out: Viability of Huh7 cell (%)): 104%
- viability at 24 h, 2.34375 µM ([2]; Table 14, RQ 2.34375 μM, 24 h, read-out: Viability of Huh7 cell (%)): 98.7%
- viability at 24 h, 4.6875 µM ([2]; Table 14, RQ 4.6875 μM, 24 h, read-out: Viability of Huh7 cell (%)): 98%
- viability at 24 h, 9.375 µM ([2]; Table 14, RQ 9.375 μM, 24 h, read-out: Viability of Huh7 cell (%)): 103%
- viability at 24 h, 18.75 µM ([2]; Table 14, RQ 18.75 μM, 24 h, read-out: Viability of Huh7 cell (%)): 101%
- viability at 24 h, 37.5 µM ([2]; Table 14, RQ 37.5 μM, 24 h, read-out: Viability of Huh7 cell (%)): 95%
- viability at 24 h, 75 µM ([2]; Table 14, RQ 75 μM, 24 h, read-out: Viability of Huh7 cell (%)): 90.9%
- viability at 24 h, 150 µM ([2]; Table 14, RQ 150 μM, 24 h, read-out: Viability of Huh7 cell (%)): 65.8%
- CC50 at 24 h ([2]; Table 1 (Huh and 293T cells)): > 300 µM
- Viability of Huh7 cell (%) (Huh7 cells; RQ 0.073242 μM): 113.9801% and 116.7518%
- Viability of Huh7 cell (%) (Huh7 cells; RQ 0.146484 μM): 106.6132% and 101.8721%
- Viability of Huh7 cell (%) (Huh7 cells; RQ 0.292969 μM): 104.4979% and 102.018%
- Viability of Huh7 cell (%) (Huh7 cells; RQ 0.585938 μM): 100.7051% and 101.5074%
- Viability of Huh7 cell (%) (Huh7 cells; RQ 1.171875 μM): 97.2% and 99.03%
- Viability of Huh7 cell (%) (Huh7 cells; RQ 2.34375 μM): 100.1945% and 96.04%
- Viability of Huh7 cell (%) (Huh7 cells; RQ 4.6875 μM): 103.5497% and 101.2886%
- Viability of Huh7 cell (%) (Huh7 cells; RQ 9.375 μM): 101.4345% and 97.71%
- Viability of Huh7 cell (%) (Huh7 cells; RQ 18.75 μM): 93.41% and 94.29%
- Viability of Huh7 cell (%) (Huh7 cells; RQ 37.5 μM): 97.06% and 92.03%
- Viability of Huh7 cell (%) (Huh7 cells; RQ 75 μM): 93.27% and 88.09%
- Viability of Huh7 cell (%) (Huh7 cells; RQ 150 μM): 67.74% and 51.47%
